Tests used:
[1] = system: FOXP3 positive cells (CD25+ splenic cells); assay: Foxp3 and Ki67 flow cytometric analysis of Treg proliferation; format: cell-based, murine
Description: To determine the effect of IGF-1 in the regulatory subset in vitro (cf. FIG. 4) the number of FOXP3 positive cells is determined by flow cytometric analysis. To analyze other subsets, like the proinflammatory Th1 and Th17 subsets, a similar approach is used but the number of interferon-gamma (Th1) and IL-17 (Th17) positive cells is determined. Additionally, to evaluate the number of proliferating cells at a given moment cells are stained using the intracellular marker Ki67, which is expressed only in cycling cells. The combination of a specific lineage marker (e.g., Foxp3, IFN-g, IL-17) with Ki67 allows for the determination at a given moment of the cells belonging to a certain subset and their proliferative status.
In animal experiments, the population is isolated normally from murine spleen (but also could be isolated from other tissues, like for example but not restricted to bone marrow, adipose tissue, cord blood derived mononuclear cell, thymus, or peripheral blood) and is sorted using different markers (e.g., CD4 and CD25). This population is defined as CD4+CD25+ and includes the regulatory cells. This population is then treated in the above-mentioned medium in the presence of IGF-1. After several days of culture part of the cells are counted, fixed, permeabilized and analyzed by flow cytometry using an anti-FOXP3 antibody in combination with the same extracellular markers (CD4 and CD25). This allows for the determination of the absolute number of FOXP3 positive cells present in the culture.
To further define the proliferative effects of IGF-1, FACS-sorted CD25+ splenic cells (>98% purity) after two days in culture with recombinant IGF-1 were fixed, permeabilized and stained with antibodies against FOXP3 and Ki67. Foxp3 is a transcription factor that orchestrates the cellular and molecular programs involved in T regulatory function. Ki67 is a nuclear antigen present in proliferating cells. […] After three days of culture the number of FOXP3 positive cells was increased four-fold and the number of regulatory T cells proliferating approximately six-fold.

CD4+CD25+ splenic cells = assay: flow cytometry of activation and homing markers on CD4+CD25+ splenic cells; format: cell-based, murine; conditions: Deguelin 1 μM; Ly-294,002 and PD.98,059 10 μM (FIG. 10)
From the text: The expression of certain markers on the surface of the cell is correlated with the degree of activation of the cells and also controls their trafficking and localization and consequently the compartmentalization of the immune responses. This is again measured using flow cytometric methods. For example, cells expressing high levels of CD62L preferentially migrate to secondary lymphoid tissues. However, as these cells enter the periphery (for example when they travel to affected tissues during an autoimmune process) they rapidly acquire an activated phenotype and express higher levels of CD44. Thus upregulation of CD44 is associated with a higher proliferation rate. […] The importance of this observation comes from the fact that in order to exert their suppressive properties, Tregs need to migrate to the affected tissues first. Therefore, IGF-1 not only induces activation of proliferation but also promotes their correct localization.
Finally, the inventors analyzed the ability of IGF-1 to alter the homing properties of the regulatory T cell subset. In 2003, Fisson et al. defined two distinct population of regulatory T cells in homeostatic conditions. In the steady state, some Tregs remain quiescent for long periods of time, whereas the other Treg population divides extensively and express multiple activation markers. […] This pattern of change is also consistent with a more activated phenotype. On one hand, CD44^hiCD62L^lo Treg populations, but not their CD44^loCD62L^hi counterparts, constantly incorporate BrdU, a synthetic analog of thymidine, into newly synthesized DNA in lymphoid tissues (Matsushima and Takashima, 2010). On the other hand, higher levels of CD62L have been associated with a higher capacity of Tregs to migrate to the lymph nodes, while lower levels allows them to migrate to sites of inflammation (Fisson et al., 2003; Bromley et al., 2008). Thus, T regulatory cells expressing lower levels of CD62L would have a higher inflammation-seeking capacity, which has been associated with higher suppressive potential in various inflammation models (Huehn et al., 2005). […] One, IGF-1 is able to activate a complex pathway resulting in Treg activation leading to proliferation and to selective homing and migration to the sites of inflammation. The second conclusion comes from the observation that sequential migration from blood to the target tissue and then to draining lymph nodes is required for nTreg to differentiate and execute fully their suppressive function, by inhibiting dendritic cells in the peripheral tissue and T effector cell responses in dLN and periphery (Zhang et al., 2009). Thus, IGF-1 treatment not only results in higher numbers of T regulatory cells but also in altering the trafficking of these cells to achieve a higher suppressive effect. […]

Row | SMILES | effect of inhibitor on IGF-1 effect on Treg proliferation ([1]; inhibitor 1 μM) | sensitivity of IGF-1 induced CD62L and CD44 changes to pathway inhibitor (CD4+CD25+ splenic cells) | effect of inhibitor on IGF-1 effect on Treg proliferation ([1]; inhibitor 10 μM)
1 | COc1cc2c(cc1OC)[C@@H]1C(=O)c3ccc4c(c3O[C@@H]1CO2)C=CC(C)(C)O4 [Deguelin, reference compound] | partially blocked | more sensitive | –
2 | O=c1cc(N2CCOCC2)oc2c(-c3ccccc3)cccc12 [Ly-294,002, reference compound] | – | – | sensitive
3 | COc1cccc(-c2cc(=O)c3ccccc3o2)c1N [PD.98,059, reference compound] | – | – | partially blocked

— patent publication US20140286906A1, “USE OF IGF-1 IN THE MODULATION OF TREG CELL ACTIVITY AND THE TREATMENT AND PREVENTION OF AUTOIMMUNE DISORDERS OR DISEASES” (priority 2011, published 2014)
